Results on 14 compounds are retold here after PubChem BioAssay AID328 (DTP/NCI, 2004).

The test system of this experiment is BDF1 mice, P388 leukemia ip, median survival T/C. Kind of experiment: NCI In Vivo Anticancer Drug Screen. Data for tumor model P388 Leukemia (intraperitoneal) in B6D2F1 (BDF1) mice. The following applies: endpoint: median survival time, higher = longer survival. A digest of the protocol: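 In tumour-bearing mice, survival after compound treatment is set against the vehicle group and given as a quotient.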

The mark [1] stands for this setting: dose: 12.5 mg/kg/injection, schedule: Q04DX003 (ip), vehicle: Klucel (hydroxypropylcellulose) (HPC).
Setting [2] is: dose: 25.0 mg/kg/injection, schedule: Q01DX009 (ip), vehicle: saline.
Setting [3] is: dose: 25.0 mg/kg/injection, schedule: Q04DX003 (ip), vehicle: Klucel (hydroxypropylcellulose) (HPC).
Setting [4] is: dose: 50.0 mg/kg/injection, schedule: Q04DX003 (ip), vehicle: Klucel (hydroxypropylcellulose) (HPC).
Where [5] appears, read: dose: 50.0 mg/kg/injection, schedule: Q01DX009 (ip), vehicle: saline with Tween-80.
Setting [6] is: dose: 100.0 mg/kg/injection, schedule: Q01DX009 (ip), vehicle: saline with Tween-80.
[7] abbreviates: dose: 200.0 mg/kg/injection, schedule: Q01DX009 (ip), vehicle: saline with Tween-80.
The mark [8] stands for this setting: dose: 100.0 mg/kg/injection, schedule: Q04DX003 (ip), vehicle: saline with Tween-80.
The mark [9] stands for this setting: dose: 200.0 mg/kg/injection, schedule: Q04DX003 (ip), vehicle: saline with Tween-80.
Setting [10] is: dose: 400.0 mg/kg/injection, schedule: Q04DX003 (ip), vehicle: saline with Tween-80.
Where [11] appears, read: dose: 400.0 mg/kg/injection, schedule: Q01DX009 (ip), vehicle: saline with Tween-80.

Where “and” joins values, the source holds several entries; their conditions need not be identical. Equal values may be shown once. Inconclusive results and toxic doses are left out.

Turning to `Nc1cc(NC(=O)c2ccc(Cl)cc2)ccc1S(=O)(=O)O`, the T/C (dose: 3.12 mg/kg/injection, schedule: Q01DX009 (ip), vehicle: saline) was 117 % of control; the T/C (dose: 6.25 mg/kg/injection, schedule: Q01DX009 (ip), vehicle: saline) is 99 % of control; the T/C (dose: 6.25 mg/kg/injection, schedule: Q04DX003 (ip), vehicle: Klucel (hydroxypropylcellulose) (HPC)) is 95 % of control; the T/C (dose: 12.5 mg/kg/injection, schedule: Q01DX009 (ip), vehicle: saline) was 90 % of control; the T/C under setting [1] was 106 % of control; the T/C under setting [2] was 87 % of control. For the same compound, the T/C under setting [3] was 93 % of control; the T/C under setting [4] is 98 % of control; the T/C (dose: 100.0 mg/kg/injection, schedule: Q04DX003 (ip), vehicle: Klucel (hydroxypropylcellulose) (HPC)) is 97 % of control.

`C=CCNc1ncnc2c1cnn2C`: the T/C by setting is: under setting [2], 95 % of control and 104 % of control; (dose: 50.0 mg/kg/injection, schedule: Q01DX009 (ip), vehicle: saline) 109 % of control; (dose: 50.0 mg/kg/injection, schedule: Q04DX003 (ip), vehicle: saline) 118 % of control; (dose: 100.0 mg/kg/injection, schedule: Q01DX009 (ip), vehicle: saline) 104 % of control; (dose: 100.0 mg/kg/injection, schedule: Q04DX003 (ip), vehicle: saline) 109 % of control; (dose: 200.0 mg/kg/injection, schedule: Q04DX003 (ip), vehicle: saline) 90 % of control.

Consider `CC1=C(c2ccccc2)C(c2ccccc2)C(/C=C/c2ccccc2)=NC=C1c1ccccc1` (centres undefined), for which the T/C by setting is: under setting [5], 108 % of control; under setting [6], 94 % of control; under setting [7], 97 % of control.

For `CC(C)C(C)/C=C\C(C)C1CCC2C3=CCC4CC(=O)CCC4(C)C3CCC21C` (centres undefined), the T/C is 104 % of control (dose: 6.25 mg/kg/injection, schedule: Q01DX009 (ip), vehicle: saline with Tween-80); 104 % of control (dose: 12.5 mg/kg/injection, schedule: Q01DX009 (ip), vehicle: saline with Tween-80); 108 % of control (dose: 25.0 mg/kg/injection, schedule: Q01DX009 (ip), vehicle: saline with Tween-80).

With `OB(O)C1=CC(c2ccccc2)(c2ccccc2)N=C1`, the T/C is 100 % of control (dose: 25.0 mg/kg/injection, schedule: Q01DX001 (ip), vehicle: saline sonified); 100 % of control (dose: 50.0 mg/kg/injection, schedule: Q01DX001 (ip), vehicle: saline sonified); 104 % of control (dose: 100.0 mg/kg/injection, schedule: Q01DX001 (ip), vehicle: saline sonified).

Regarding `CCC(O)(CC(=O)O)c1ccccc1` (centres undefined), the T/C is, setting by setting: under setting [8], 95 % of control; under setting [9], 90 % of control; under setting [10], 90 % of control.

Regarding `O=[N+]([O-])c1ccc(Sc2cccs2)c([N+](=O)[O-])c1`, the T/C runs as follows: under setting [6], 100 % of control; under setting [8], 104 % of control; under setting [7], 95 % of control; under setting [9], 95 % of control; under setting [11], 108 % of control; under setting [10], 100 % of control.

As for `CC(C)(C)CC(=O)OCCC[N+](C)(C)[O-]`, the T/C is 100 % of control (dose: 100.0 mg/kg/injection, schedule: Q01DX005 (ip), vehicle: water) and 100 % of control (dose: 200.0 mg/kg/injection, schedule: Q01DX005 (ip), vehicle: water).

Turning to `O=NN(CCCl)C(=O)N[C@H]1CCCC[C@H]1Cl`, the T/C was 104 % of control (dose: 1.0 mg/kg/injection, schedule: Q01DX009 (ip), vehicle: Klucel (hydroxypropylcellulose) (HPC)); 104 % of control (dose: 1.0 mg/kg/injection, schedule: Q04DX003 (ip), vehicle: Klucel (hydroxypropylcellulose) (HPC)); 116 % of control (dose: 1.5 mg/kg/injection, schedule: Q01DX009 (ip), vehicle: Klucel (hydroxypropylcellulose) (HPC)); 104 % of control (dose: 2.0 mg/kg/injection, schedule: Q04DX003 (ip), vehicle: Klucel (hydroxypropylcellulose) (HPC)); 104 % of control (dose: 2.3 mg/kg/injection, schedule: Q01DX009 (ip), vehicle: Klucel (hydroxypropylcellulose) (HPC)); 100 % of control (dose: 4.0 mg/kg/injection, schedule: Q04DX003 (ip), vehicle: Klucel (hydroxypropylcellulose) (HPC)). The T/C reads like this: (dose: 5.5 mg/kg/injection, schedule: Q01DX009 (ip), vehicle: Klucel (hydroxypropylcellulose) (HPC)) 153 % of control and 194 % of control; (dose: 8.5 mg/kg/injection, schedule: Q01DX009 (ip), vehicle: Klucel (hydroxypropylcellulose) (HPC)) 159 % of control and 169 % of control and 216 % of control; (dose: 8.5 mg/kg/injection, schedule: Q04DX003 (ip), vehicle: Klucel (hydroxypropylcellulose) (HPC)) 165 % of control; (dose: 13.0 mg/kg/injection, schedule: Q01DX009 (ip), vehicle: Klucel (hydroxypropylcellulose) (HPC)) 305 % of control and 192 % of control; (dose: 13.0 mg/kg/injection, schedule: Q04DX003 (ip), vehicle: Klucel (hydroxypropylcellulose) (HPC)) 235 % of control; (dose: 20.0 mg/kg/injection, schedule: Q01DX009 (ip), vehicle: Klucel (hydroxypropylcellulose) (HPC)) 250 % of control and 333 % of control and 200 % of control. For the same compound, the T/C by setting is: (dose: 20.0 mg/kg/injection, schedule: Q04DX003 (ip), vehicle: Klucel (hydroxypropylcellulose) (HPC)) 270 % of control and 300 % of control; (dose: 30.0 mg/kg/injection, schedule: Q01DX009 (ip), vehicle: Klucel (hydroxypropylcellulose) (HPC)) 120 % of control; (dose: 30.0 mg/kg/injection, schedule: Q04DX003 (ip), vehicle: Klucel (hydroxypropylcellulose) (HPC)) 300 % of control; (dose: 44.0 mg/kg/injection, schedule: Q01DX009 (ip), vehicle: Klucel (hydroxypropylcellulose) (HPC)) 104 % of control; (dose: 44.0 mg/kg/injection, schedule: Q04DX003 (ip), vehicle: Klucel (hydroxypropylcellulose) (HPC)) 300 % of control; (dose: 67.0 mg/kg/injection, schedule: Q04DX003 (ip), vehicle: Klucel (hydroxypropylcellulose) (HPC)) 300 % of control.

As to `CC1(C)CC(=O)C=C(OCCc2ccccc2)C1`, the T/C by setting is: under setting [6], 100 % of control; under setting [7], 109 % of control; under setting [11], 118 % of control.

As to `CCOC(=O)NC(=S)n1ncnc1N`, the T/C (dose: 8.75 mg/kg/injection, schedule: Q01DX009 (ip), vehicle: saline) was 95 % of control; the T/C under setting [1] is 110 % of control; the T/C (dose: 17.5 mg/kg/injection, schedule: Q01DX009 (ip), vehicle: saline) was 105 % of control; the T/C under setting [3] was 100 % of control; the T/C (dose: 35.0 mg/kg/injection, schedule: Q01DX009 (ip), vehicle: saline) is 90 % of control; the T/C under setting [4] is 100 % of control.

Turning to `C=C1C(=O)OC2C3OC(C)(CCC(O)C3COC(C)=O)CC(OC(=O)/C(=C/C)COC(C)=O)C12` (centres undefined), the T/C (dose: 3.13 mg/kg/injection, schedule: Q01DX009 (ip), vehicle: Klucel (hydroxypropylcellulose) (HPC)) is 100 % of control; the T/C (dose: 6.25 mg/kg/injection, schedule: Q01DX009 (ip), vehicle: Klucel (hydroxypropylcellulose) (HPC)) is 112 % of control; the T/C (dose: 12.5 mg/kg/injection, schedule: Q01DX009 (ip), vehicle: Klucel (hydroxypropylcellulose) (HPC)) was 102 % of control; the T/C (dose: 25.0 mg/kg/injection, schedule: Q01DX009 (ip), vehicle: Klucel (hydroxypropylcellulose) (HPC)) was 121 % of control.

`Cc1cc(O)c(C(C)C)cc1S(=O)(=O)O` (tested in a mixture with another compound): the T/C (dose: 37.5 mg/kg/injection, schedule: Q01DX009 (ip), vehicle: Klucel (hydroxypropylcellulose) (HPC)) was 95 % of control; the T/C under setting [5] was 100 % of control; the T/C under setting [6] is 95 % of control; the T/C (dose: 150.0 mg/kg/injection, schedule: Q01DX009 (ip), vehicle: Klucel (hydroxypropylcellulose) (HPC)) was 100 % of control; the T/C (dose: 150.0 mg/kg/injection, schedule: Q01DX009 (ip), vehicle: saline with Tween-80) is 150 % of control.

For the compound `CC(=O)Oc1cc(OCCCc2ccc(F)cc2)cc2ccc3ccccc3c12`, the T/C (dose: 25.0 mg/kg/injection, schedule: Q04DX002 (ip), vehicle: saline with Tween-80) was 99 % of control; the T/C (dose: 50.0 mg/kg/injection, schedule: Q04DX002 (ip), vehicle: saline with Tween-80) is 98 % of control; the T/C (dose: 100.0 mg/kg/injection, schedule: Q04DX002 (ip), vehicle: saline with Tween-80) is 90 % of control.
